Reference: patent US20250154180A1, “CRK-LIKE (CRKL) ADAPTOR PROTEIN INHIBITORS AND METHODS OF MAKING AND USING THE SAME” (Rutgers, The State University of New Jersey, priority 2022, published 2025)

Assays:
CrkL = CrkL (Homo sapiens, UniProt P46109); test: Thermal shift assay, CrkL; assay type: binding; details: increase of 2° C. or greater in Tm defined as positive
Description: Thermal Shift Assay—Thermal shift assay is a thermal-denaturation assay, which can measure the thermal stability of a tested protein. When a protein of interest is bound to a ligand (or drug), its melting temperature increases. For each single well assay, CrkL (1 μg per well), SYPRO® Orange (1:500 dilution from original stock), candidate drugs (same final concentration as in AlphaScreen) and reaction buffer (1×TBS) were mixed. The total volume for a single well was 10 ul. The assay was quantified by a melt curve on a real-time PCR machine, using melting temperatures from 20° C. to 95° C.
To identify specific pCrk inhibitors, thermal shift and in vitro kinase assays were used to distinguish between these possibilities. In a thermal shift assay, each tested protein (purified Ab1 or CrkL) has a melting temperature (Tm) detected by a protein stain dye such as Sypro Orange. After binding to a drug, the Tm of the tested protein will increase as a higher temperature is required to unfold the protein (FIG. 2A). A total of 71 candidate compounds from different libraries were evaluated, which were previously identified by the initial AlphaScreen assay, on both CrkL and Ab1. An increase of 2° C. or greater in Tm (stable increase in three independent experiments) was defined as a positive result in these thermal shift assays.

4T1 breast tumor = test: 4T1-Luc orthotopic syngeneic breast tumor model; assay type: in vivo, Balb/c mice; details: 5.0 μg/g oral gavage
From the text: Syngeneic orthotopic 4T1 breast tumor-bearing mouse model was established by inoculating 5×10^4 4T1-Luc cells mixed with Matrigel were into the left inguinal fat pad of Balb/c mice from Jackson Laboratories. This orthotopic syngeneic breast tumor model is a tool for preclinical testing of anti-cancer drugs or immunotherapy that require an intact immune system to elicit activity.
To test the effects of the disclosed compounds on the xenograft mouse models, the HCC-Sk-Hep1 cell line xenograft model in NSG mice and 4T1-Luc orthotopic syngeneic breast tumor model in Balb/c mice was used. After confirming the palpable tumor in NSG or Balb/c mice. […] Compound III is referred to as “NC5-140-1” and Compound I is referred to as “NC5-140-2” in FIGS. 11A-11C.

[1] = tested on: IL-2 production from human PBMCs; test: IL-2 ELISA, PBMCs; assay type: cell-based
Description: IL-2 ELISA—IL-2 in vitro enzyme-linked immunosorbent assay (ELISA) was used to measure human IL-2 productions. This assay was conducted per the user manual from the kit. In brief, human PBMCs were cultured in R10 medium with 0.5 μg/ml PHA. Then, 100 μl of the standard and sample was added to each well and incubated at 4° C. overnight. A prepared biotin antibody (100 μl) was added to each well and incubated for 1 hour at room temperature. Then, 100 μl prepared streptavidin solution was added and incubated for 45 minutes at room temperature. TMB one-step substrate reagent (100 μl) was then added to each well and incubated for 30 minutes at room temperature. Stop solution (50 μl) was then added to each well, and the results were quantified at 450 nm by Infinite M1000 Pro Plate Reader (Tecan, Switzerland) immediately.
Previous studies have shown that phosphorylated CrkL inhibits immune cell functions. It was then evaluated whether a pCrkL inhibitor could restore immune cell functions. To test this, the production of IL-2 from human PBMCs treated with different concentrations of Pomiferin was quantitated. Phytohemagglutinin (PHA) was used to stimulate the secretion of IL-2 as a positive control group. […] Similar results were obtained from the third donor (FIG. 5B, lower panel).

PBMC cells = test: Annexin V/PI apoptosis, PBMC; assay type: cell-based, human; details: various concentrations, 24 hours
Description: Annexin V/PI Staining—Experimental cells were collected, washed with 1×PBS, resuspended in the binding buffer, and stained with an Annexin V-FITC assay Kit (Millipore Sigma). The cells were incubated with 50 μg/ml Annexin V in 1× binding buffer at room temperature for 15 minutes, then 10 μg/ml propidium iodide for another 15 minutes and analyzed by flow cytometry (EPICS XL). Annexin V-positive/PI-negative cells were considered early apoptotic, cells with both Annexin V and PI-positive to be late apoptotic, and Annexin V negative but PI-positive to be “necrotic.” The percent of apoptosis was calculated as the sum of the percentages of both early and late apoptotic cells.
To figure out the features of cytotoxic effects of Pomiferin on breast cancer cells. Pomiferin-treated breast cancer cells were stained with an Annexin V/PI kit and measured them with Flow Cytometry.

[2] = tested on: pCrkL (T207) in Sk-Hep1 cells; test: Flow cytometry of H2O2-induced pCrkL, Sk-Hep1; assay type: cell-based; details: 50 uM H2O2 1 hour, then 10 uM compound 24 hours
Description: In this example, Sk-Hep1 cells were pretreated with 50 uM H2O2 for 1 hour to induce activation of pCrkL and were then incubated with 10 uM NC5 or Compound III for 24 hours. pCrkL (T207) expression was determined by flow cytometry.

[3] = tested on: breast cancer cells (MCF7, MDA-MB-453, MDA-MB-231, MDA-MB-231-GFP-LUC, Hs578t, MDA-MB-468); test: MTT assay, breast cancer cell lines (TNBC and non-TNBC); assay type: cell-based; details: 72 h, three days after treatment
Description: Peripheral blood mononuclear cells (PBMCs, line with the symbol □) were used to determine the specificities of the cytotoxic effects of Pomiferin. The survival curve of PBMC-average is from four different healthy donors. Cells (1×10^3−3×10^3) were plated in 96-well plates, and cell growth was determined by MTT assay three days after cells were treated with Pomiferin at the indicated doses.
MTT assay—The MTT assay was used to detect cell proliferation. Briefly, cells were plated in a 96-well plate at a density of 50,000 cells/well in 200 μl of culture medium with candidate drugs to be tested (DMSO as a negative control). The treated cells were incubated for four hours a 37° C. with a 5% CO2 incubator to allow dark crystals to form at the bottom of the wells. After culturing for 48 hours, […] of MTT reagent was added to each well and mixed gently for one minute. After aspirating the culture medium from each well, 100 μl of crystal dissolving solution was added to each well and incubated for 10 minutes at RT. The signal was quantified by measuring the absorbance in each sample at 570 nm using a microplate reader.

Chain of CrkL (P46109 whole entry): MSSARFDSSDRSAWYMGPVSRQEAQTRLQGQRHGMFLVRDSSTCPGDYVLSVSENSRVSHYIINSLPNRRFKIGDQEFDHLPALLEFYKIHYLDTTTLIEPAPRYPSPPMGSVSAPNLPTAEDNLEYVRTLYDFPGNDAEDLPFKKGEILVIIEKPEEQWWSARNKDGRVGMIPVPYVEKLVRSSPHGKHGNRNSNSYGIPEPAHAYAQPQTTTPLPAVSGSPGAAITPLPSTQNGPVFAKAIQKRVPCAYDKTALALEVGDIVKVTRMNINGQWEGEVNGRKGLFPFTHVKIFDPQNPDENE

## CC(C)=CCc1c2c(c3occ(-c4ccc(O)c(O)c4)c(=O)c3c1O)C=CC(C)(C)O2 [Pomiferin, 3′,4′,5-Trihydroxy-6″,6″-dimethyl-6-(3-methylbut-2-en-1-yl)-6″H-pyrano[2″,3″:7,8]isoflavone]
CrkL
  Tm of CrkL (thermal shift): the Tm of CrkL increased
4T1 breast tumor
  tumor growth: steady growth inhibition
4T1 breast tumor; vehicle 25 days
  median survival: 38.5 days
[1]; PBMCs from three healthy donors, treated overnight
  IL2 secretion: did not inhibit IL2 secretion
[1]; first donor, compared to DMSO
  IL-2 production: decreased IL-2 production
PBMC cells
  apoptosis: limited responses
[2]
  H2O2 induced pCrkL protein levels: inhibited H2O2 induced pCrkL protein levels
[3]
  IC50: 1300 to 3600 nM
